BindingDB's records for patent US20230286970 (Italfarmaco, 2023)

How the values were obtained:
Test in all cases: Enzymatic Activity Assay
Histone deacetylase 1 = Histone deacetylase 1 (Homo sapiens, UniProt Q13547)
Method: (§1) After a period of preincubation (incubation times and temperatures vary for different isoforms and are shown in table 1) 25 μL of solution containing the substrate were added. […] Enzymatic activity on recombinant human HDAC6 and HDAC1 was evaluated (Table 2) for each synthesized compound.

Histone deacetylase 11 = molecular target: T1, Histone deacetylase 11 (Homo sapiens, UniProt Q96DB2)
T1 sequence (Q96DB2 whole entry): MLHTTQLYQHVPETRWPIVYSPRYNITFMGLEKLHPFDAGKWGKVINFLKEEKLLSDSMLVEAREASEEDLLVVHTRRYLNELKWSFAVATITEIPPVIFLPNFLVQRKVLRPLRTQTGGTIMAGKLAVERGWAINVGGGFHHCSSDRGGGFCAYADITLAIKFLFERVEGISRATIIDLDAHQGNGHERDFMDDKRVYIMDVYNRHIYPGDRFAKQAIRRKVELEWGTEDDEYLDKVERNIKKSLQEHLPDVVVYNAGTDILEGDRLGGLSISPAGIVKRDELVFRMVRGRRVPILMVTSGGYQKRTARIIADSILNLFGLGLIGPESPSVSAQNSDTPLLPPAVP
Method: as §1

Histone deacetylase 2 = Histone deacetylase 2 (Homo sapiens, UniProt Q92769)
Sequence of Histone deacetylase 2 (Q92769 whole entry): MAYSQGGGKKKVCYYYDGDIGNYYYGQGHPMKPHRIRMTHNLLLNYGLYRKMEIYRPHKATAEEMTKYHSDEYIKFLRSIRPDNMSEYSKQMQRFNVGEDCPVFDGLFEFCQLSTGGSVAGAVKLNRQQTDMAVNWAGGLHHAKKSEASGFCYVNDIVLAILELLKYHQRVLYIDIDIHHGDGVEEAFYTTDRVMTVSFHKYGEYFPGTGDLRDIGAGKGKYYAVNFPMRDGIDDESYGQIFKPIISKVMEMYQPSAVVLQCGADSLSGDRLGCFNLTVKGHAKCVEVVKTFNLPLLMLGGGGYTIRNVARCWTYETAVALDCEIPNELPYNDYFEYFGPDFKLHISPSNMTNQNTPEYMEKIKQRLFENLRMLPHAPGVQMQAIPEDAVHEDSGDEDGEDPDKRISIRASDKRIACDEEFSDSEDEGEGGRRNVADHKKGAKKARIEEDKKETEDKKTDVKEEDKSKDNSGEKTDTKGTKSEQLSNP
Method: as §1

Histone deacetylase 3 = Histone deacetylase 3 (Homo sapiens, UniProt O15379)
Sequence of Histone deacetylase 3 (O15379 whole entry): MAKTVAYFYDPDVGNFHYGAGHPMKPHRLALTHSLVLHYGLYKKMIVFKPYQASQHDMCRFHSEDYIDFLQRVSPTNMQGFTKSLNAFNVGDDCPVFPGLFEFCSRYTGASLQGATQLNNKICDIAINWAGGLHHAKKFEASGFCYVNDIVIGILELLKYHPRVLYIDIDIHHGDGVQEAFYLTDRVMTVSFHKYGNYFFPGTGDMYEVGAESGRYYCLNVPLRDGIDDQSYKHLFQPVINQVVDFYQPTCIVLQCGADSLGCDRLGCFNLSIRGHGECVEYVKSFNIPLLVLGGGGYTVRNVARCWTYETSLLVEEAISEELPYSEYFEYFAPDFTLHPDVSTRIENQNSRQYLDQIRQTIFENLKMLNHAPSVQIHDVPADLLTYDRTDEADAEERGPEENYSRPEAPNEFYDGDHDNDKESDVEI
Method: as §1

Histone deacetylase 4 = Histone deacetylase 4 (Homo sapiens, UniProt P56524)
Sequence of Histone deacetylase 4 (P56524 whole entry): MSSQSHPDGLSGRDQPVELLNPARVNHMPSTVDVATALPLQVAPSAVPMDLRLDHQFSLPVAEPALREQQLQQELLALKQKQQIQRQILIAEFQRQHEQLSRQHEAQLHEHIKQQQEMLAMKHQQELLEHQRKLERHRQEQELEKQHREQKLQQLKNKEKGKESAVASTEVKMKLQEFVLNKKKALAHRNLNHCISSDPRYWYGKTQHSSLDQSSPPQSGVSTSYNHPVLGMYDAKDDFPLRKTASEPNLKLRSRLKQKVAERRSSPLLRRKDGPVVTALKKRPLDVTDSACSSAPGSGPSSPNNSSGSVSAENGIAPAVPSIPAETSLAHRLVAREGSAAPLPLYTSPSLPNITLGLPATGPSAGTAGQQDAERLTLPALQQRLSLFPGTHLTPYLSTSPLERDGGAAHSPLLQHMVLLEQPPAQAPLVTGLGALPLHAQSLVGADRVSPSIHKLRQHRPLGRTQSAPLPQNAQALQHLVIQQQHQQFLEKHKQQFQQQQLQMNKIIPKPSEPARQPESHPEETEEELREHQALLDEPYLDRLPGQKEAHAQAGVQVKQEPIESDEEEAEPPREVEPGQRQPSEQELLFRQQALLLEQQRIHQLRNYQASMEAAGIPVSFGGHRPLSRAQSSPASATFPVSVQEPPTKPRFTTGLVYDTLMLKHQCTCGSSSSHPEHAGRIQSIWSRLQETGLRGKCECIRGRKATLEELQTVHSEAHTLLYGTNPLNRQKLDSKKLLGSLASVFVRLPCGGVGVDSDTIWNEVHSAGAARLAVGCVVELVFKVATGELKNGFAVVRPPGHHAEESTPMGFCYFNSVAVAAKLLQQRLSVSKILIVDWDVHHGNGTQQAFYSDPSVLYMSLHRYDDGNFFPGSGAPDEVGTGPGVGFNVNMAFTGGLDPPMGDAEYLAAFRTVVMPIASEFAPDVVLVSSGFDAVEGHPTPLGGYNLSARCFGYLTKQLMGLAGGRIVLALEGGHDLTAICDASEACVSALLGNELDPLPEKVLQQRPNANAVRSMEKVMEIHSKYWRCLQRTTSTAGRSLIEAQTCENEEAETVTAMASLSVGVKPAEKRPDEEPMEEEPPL
Method: as §1

Histone deacetylase 5 = Histone deacetylase 5 (Homo sapiens, UniProt Q9UQL6)
Sequence of Histone deacetylase 5 (Q9UQL6 whole entry): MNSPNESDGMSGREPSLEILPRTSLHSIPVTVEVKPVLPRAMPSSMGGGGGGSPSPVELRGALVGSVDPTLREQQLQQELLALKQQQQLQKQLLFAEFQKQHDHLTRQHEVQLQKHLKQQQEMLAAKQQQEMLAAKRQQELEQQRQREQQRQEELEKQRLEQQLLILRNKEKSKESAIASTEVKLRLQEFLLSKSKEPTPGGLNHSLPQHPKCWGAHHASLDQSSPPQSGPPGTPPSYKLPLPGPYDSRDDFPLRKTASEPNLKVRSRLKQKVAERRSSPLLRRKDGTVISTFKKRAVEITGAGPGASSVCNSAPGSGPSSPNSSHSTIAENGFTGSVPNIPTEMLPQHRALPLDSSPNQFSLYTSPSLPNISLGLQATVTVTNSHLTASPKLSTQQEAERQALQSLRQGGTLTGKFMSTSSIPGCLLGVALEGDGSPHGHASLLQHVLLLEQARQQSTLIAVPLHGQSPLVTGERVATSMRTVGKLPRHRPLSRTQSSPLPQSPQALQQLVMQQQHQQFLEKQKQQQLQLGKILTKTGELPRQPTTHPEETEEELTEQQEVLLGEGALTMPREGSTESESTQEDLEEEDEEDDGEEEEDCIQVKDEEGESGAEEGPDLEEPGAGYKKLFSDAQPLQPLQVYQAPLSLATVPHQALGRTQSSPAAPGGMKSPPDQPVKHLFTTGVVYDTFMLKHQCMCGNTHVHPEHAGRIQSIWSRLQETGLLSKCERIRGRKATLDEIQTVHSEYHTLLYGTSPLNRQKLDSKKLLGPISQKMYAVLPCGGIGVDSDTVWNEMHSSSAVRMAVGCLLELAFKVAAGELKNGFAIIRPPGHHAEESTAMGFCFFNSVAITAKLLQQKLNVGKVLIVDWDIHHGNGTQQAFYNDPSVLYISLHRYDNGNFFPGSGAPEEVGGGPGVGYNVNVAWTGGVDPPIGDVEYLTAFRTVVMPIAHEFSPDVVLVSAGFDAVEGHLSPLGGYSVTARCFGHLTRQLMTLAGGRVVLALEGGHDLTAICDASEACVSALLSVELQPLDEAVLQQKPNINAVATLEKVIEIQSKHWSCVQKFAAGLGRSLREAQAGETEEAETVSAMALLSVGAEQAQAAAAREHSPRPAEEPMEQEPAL
Method: as §1

Histone deacetylase 6 = molecular target: T2, Histone deacetylase 6 (Homo sapiens, UniProt Q9UBN7)
T2 sequence (Q9UBN7 whole entry): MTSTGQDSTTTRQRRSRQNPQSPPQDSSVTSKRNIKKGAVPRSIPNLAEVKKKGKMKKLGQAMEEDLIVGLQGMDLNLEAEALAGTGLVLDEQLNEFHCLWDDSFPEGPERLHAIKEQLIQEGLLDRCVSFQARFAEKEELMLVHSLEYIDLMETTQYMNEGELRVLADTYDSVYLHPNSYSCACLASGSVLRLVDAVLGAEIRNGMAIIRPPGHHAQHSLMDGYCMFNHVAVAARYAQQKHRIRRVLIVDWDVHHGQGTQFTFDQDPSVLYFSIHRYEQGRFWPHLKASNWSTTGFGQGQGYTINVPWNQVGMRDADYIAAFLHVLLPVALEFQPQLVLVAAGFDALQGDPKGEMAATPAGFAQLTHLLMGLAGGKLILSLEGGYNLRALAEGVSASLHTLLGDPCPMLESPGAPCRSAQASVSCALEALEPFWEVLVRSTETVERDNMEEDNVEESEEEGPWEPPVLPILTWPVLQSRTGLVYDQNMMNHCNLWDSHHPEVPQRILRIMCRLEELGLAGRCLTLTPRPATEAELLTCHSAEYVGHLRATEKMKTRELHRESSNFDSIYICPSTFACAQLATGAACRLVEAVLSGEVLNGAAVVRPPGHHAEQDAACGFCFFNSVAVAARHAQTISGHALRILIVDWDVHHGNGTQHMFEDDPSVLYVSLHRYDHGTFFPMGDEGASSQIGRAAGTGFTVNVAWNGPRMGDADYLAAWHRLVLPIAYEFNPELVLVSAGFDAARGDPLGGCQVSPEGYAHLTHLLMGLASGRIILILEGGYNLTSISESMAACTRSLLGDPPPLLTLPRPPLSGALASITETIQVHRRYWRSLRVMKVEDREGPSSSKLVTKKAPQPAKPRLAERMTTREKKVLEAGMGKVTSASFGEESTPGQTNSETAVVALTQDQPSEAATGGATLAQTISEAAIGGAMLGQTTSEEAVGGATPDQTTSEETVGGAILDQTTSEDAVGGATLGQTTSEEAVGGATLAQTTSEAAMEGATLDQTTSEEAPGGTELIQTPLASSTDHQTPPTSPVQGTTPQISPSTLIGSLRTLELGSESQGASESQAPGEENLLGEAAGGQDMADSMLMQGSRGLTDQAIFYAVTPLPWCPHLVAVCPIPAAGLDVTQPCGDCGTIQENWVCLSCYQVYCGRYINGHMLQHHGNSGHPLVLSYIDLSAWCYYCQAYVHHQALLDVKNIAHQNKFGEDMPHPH
Method: as §1

Histone deacetylase 8 = molecular target: T3, Histone deacetylase 8 (Homo sapiens, UniProt Q9BY41)
T3 sequence (Q9BY41 whole entry): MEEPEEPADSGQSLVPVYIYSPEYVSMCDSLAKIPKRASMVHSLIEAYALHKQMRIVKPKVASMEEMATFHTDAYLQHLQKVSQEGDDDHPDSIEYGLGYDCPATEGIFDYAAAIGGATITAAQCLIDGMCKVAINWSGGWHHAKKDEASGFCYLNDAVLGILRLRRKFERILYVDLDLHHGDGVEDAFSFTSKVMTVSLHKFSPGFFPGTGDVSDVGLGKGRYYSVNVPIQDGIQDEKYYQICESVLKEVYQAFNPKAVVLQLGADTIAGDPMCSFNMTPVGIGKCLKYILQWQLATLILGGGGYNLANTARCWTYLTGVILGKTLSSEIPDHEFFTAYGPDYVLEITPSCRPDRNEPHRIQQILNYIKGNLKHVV
Method: as §1

[1] = molecular target: T4, Polyamine deacetylase HDAC10 (Homo sapiens, UniProt Q969S8)
T4 sequence (Q969S8 whole entry): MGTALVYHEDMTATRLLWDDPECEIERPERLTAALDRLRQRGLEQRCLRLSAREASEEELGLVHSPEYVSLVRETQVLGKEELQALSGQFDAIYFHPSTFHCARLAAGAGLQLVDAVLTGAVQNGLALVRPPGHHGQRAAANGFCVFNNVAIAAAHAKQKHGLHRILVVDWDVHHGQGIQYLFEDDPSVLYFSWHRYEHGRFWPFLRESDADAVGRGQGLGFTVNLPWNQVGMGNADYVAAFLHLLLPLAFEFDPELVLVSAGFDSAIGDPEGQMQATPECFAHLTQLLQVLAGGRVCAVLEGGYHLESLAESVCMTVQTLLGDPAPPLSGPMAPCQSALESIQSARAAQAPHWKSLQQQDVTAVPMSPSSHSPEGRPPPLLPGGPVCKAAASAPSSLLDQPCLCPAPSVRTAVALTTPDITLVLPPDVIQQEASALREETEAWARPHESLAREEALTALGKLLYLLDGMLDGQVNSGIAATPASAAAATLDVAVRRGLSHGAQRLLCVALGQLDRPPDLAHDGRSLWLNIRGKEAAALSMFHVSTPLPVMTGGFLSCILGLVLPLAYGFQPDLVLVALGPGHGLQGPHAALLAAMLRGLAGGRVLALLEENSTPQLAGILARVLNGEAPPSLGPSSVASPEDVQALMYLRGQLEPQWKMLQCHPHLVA
Method: as §1

Sequence of Histone deacetylase 1 (Q13547 whole entry, canonical isoform): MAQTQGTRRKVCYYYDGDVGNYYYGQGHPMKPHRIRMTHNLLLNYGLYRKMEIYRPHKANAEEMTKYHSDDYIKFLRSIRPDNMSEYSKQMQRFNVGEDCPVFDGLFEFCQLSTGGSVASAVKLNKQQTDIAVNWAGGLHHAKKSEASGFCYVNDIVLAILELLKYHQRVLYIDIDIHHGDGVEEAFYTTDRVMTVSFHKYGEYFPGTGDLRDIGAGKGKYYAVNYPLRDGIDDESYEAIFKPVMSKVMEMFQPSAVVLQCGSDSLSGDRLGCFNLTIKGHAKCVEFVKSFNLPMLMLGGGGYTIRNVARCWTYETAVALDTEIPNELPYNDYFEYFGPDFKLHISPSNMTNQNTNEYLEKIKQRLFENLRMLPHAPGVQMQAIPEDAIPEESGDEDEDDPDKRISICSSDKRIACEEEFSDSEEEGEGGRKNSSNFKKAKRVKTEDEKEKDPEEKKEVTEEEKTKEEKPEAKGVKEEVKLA

IC50 (Histone deacetylase 1)	IC50 (Histone deacetylase 11)	IC50 (Histone deacetylase 2)	IC50 (Histone deacetylase 3)	IC50 (Histone deacetylase 4)	IC50 (Histone deacetylase 5)	IC50 (Histone deacetylase 6)	IC50 (Histone deacetylase 8)	IC50 [1]	Compound
> 200 µM	> 30 µM	> 30 µM	> 30 µM	> 30 µM	> 30 µM	0.025 µM	> 200 µM	> 30 µM	Nc1nc2ccc(-c3cn(Cc4ccc(-c5nnc(C(F)F)o5)cc4)nn3)cc2s1 [US20230286970, Compound 14]
> 200 µM	> 30 µM	> 30 µM	> 30 µM	> 30 µM	> 30 µM	0.026 µM	> 200 µM	> 30 µM	Nc1ccc(-c2cn(Cc3ccc(-c4nnc(C(F)F)o4)c(F)c3)nn2)cn1 [US20230286970, Compound 15]
